The target of one assay is mTOR/GbL/Raptor (mTORC1) (Homo sapiens, UniProt P42345). In words: mTOR/GbL/Raptor (mTORC1) ELISA assay. The format is biochemical. The settings on record: phosphorylation of 4E-BP1; 0.2 nM mTORC1, 10 μM ATP, 50 nM NHis-tagged 4E-BP1. As for the experimental part: mTOR/GbL/Raptor (mTORC1) ELISA Assay
The measurement of mTORC1 enzyme activity was performed in an ELISA assay format following the phosphorylation of 4E-BP1 protein. All experiments were performed in the 384-well format. Generally, 0.5 μL DMSO containing varying concentrations of the test compound was mixed with 15 μL enzyme solution. Kinase reactions were initiated with the addition of 15 μL of substrates-containing solution. The assay conditions were as follows; 0.2 nM mTORC1, 10 μM ATP and 50 nM NHis-tagged 4E-BP1 in 20 mM Hepes, pH 7.2, 1 mM DTT, 50 mM NaCl, 10 mM MnCl2, 0.02 mg/mL BSA, 0.01% CHAPS, 50 mM β-glycerophosphate. Following an incubation of 120 minutes at ambient temperature, 20 μL of the reaction volume was transferred to a Ni-Chelate-coated 384-well plate. The binding step of the 4E-BP1 protein proceeded for 60 minutes, followed by washing 4 times each with 50 μL of Tris-buffered saline solution (TBS). Anti-phospho-4E-BP1 rabbit-IgG (20 μL, 1:5000) in 5% BSA-TBST (0.2% Tween-20 in TBS) was added and further incubated for 60 minutes. Incubation with a secondary HRP-tagged anti-IgG was similarly performed after washing off the primary antibody (4 washes of 50 μL). Following the final wash step with TBST, 20 μL of SuperSignal ELISA Femto (Pierce Biotechnology) was added and the luminescence measured using an EnVision plate reader.
(In general: ELISA stands for enzyme-linked immunosorbent assay.)

The target in a further assay is PI3Kα (Homo sapiens, UniProt P42336). In words: PI3K biochemical assay (PI3K-alpha, luciferase-luciferin ATP consumption). The settings on record: 3 nM enzyme, 1 μM ATP, 10 μM PIP2; percent of ATP consumed. As to the method: PI3Kα activity was measured as the percent of ATP consumed following the kinase reaction using luciferase-luciferin-coupled chemiluminescence. Reactions were conducted in 384-well white, medium binding microtiter plates (Greiner). Kinase reactions were initiated by combining test compounds, ATP, substrate (PIP2), and kinase in a 20 μL volume in a buffer solution. The standard PI3Kalpha assay buffer was composed 50 mM Tris, pH 7.5, 1 mM EGTA, 10 mM MgCl2, 1 mM DTT and 0.03% CHAPS. The standard assay concentrations for enzyme, ATP, and substrate were 3 nM, 1 μM, and 10 μM, respectively. The reaction mixture was incubated at ambient temperature for approximately 2 h. Following the kinase reaction, a 10 μL aliquot of luciferase-luciferin mix (Promega Kinase-Glo) was added and the chemiluminescence signal measured using a Victor2 or EnVision (Perkin Elmer). Total ATP consumption was limited to 40-60% and IC50 values of control compounds correlate well with literature references. Substituting PI3Kα with PI3Kβ, PI3Kγ, or […], the inhibitory activity of the compounds for the other isoforms of PI3K were measured. For the PI3Kβ and PI3Kδ assays, enzyme concentrations were 10 nM and 4 nM, respectively. For the PI3Kγ assay, enzyme concentration was 40 nM, the incubation time was 1 h, and the concentration of MgCl2 in the assay buffer was 5 mM.
Chain of PI3Kα (P42336 whole entry): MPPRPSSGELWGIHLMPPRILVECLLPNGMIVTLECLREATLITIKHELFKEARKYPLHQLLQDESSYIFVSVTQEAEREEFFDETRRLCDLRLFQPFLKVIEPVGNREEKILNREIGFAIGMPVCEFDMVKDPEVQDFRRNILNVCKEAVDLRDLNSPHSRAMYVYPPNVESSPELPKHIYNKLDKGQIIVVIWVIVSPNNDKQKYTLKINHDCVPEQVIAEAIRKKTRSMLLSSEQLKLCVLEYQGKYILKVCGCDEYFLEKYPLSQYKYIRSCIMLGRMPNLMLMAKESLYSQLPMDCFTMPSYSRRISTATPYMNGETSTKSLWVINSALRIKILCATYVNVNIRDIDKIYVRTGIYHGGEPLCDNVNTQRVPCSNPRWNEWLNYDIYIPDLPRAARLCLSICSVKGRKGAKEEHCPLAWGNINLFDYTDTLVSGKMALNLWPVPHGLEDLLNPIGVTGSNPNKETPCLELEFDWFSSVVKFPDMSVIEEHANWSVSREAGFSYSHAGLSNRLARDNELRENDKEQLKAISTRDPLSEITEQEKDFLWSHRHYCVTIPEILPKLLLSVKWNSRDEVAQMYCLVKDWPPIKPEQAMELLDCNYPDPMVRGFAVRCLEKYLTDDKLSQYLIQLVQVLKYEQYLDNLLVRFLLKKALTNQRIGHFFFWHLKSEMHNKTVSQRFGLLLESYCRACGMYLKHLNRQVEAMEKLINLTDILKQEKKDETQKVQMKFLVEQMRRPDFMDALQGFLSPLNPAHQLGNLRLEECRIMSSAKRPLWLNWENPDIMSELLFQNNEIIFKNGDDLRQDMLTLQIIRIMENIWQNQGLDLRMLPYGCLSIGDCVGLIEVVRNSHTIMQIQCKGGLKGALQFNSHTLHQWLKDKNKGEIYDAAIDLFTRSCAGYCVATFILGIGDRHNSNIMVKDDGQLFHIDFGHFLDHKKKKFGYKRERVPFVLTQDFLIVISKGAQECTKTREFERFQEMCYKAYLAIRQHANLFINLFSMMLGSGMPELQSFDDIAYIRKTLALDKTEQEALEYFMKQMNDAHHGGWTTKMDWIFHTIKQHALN
Chain of PI3Kα (P27986 whole entry partner): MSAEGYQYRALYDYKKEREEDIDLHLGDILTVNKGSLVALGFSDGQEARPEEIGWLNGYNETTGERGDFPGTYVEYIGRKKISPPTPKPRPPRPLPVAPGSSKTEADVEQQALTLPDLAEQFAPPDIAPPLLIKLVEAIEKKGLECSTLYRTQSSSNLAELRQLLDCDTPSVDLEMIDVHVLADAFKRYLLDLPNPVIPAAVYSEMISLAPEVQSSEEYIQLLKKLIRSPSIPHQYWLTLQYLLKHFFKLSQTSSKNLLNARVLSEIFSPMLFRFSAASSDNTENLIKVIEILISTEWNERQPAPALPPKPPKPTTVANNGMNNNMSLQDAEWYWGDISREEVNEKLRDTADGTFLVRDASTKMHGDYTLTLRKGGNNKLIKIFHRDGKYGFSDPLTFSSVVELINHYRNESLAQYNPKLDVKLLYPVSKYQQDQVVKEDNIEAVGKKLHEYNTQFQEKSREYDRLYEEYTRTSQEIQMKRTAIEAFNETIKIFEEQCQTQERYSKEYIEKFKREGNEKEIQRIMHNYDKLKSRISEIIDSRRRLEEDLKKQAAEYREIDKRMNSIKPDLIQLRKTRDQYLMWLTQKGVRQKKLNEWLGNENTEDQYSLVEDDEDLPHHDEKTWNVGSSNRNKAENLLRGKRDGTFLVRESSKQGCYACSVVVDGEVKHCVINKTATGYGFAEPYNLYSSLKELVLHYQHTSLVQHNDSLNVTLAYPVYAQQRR

Consider `Cc1cc(N2CCOc3ccc(-c4ccc5[nH]cnc5c4)cc3C2)nc(N)n1` [Compound 43, 4-[7-(1H-benzimidazol-5-yl)-2,3-dihydro-1,4-benzoxazepin-4(5H)-yl]-6-methylpyrimidin-2-amine], for which the IC50 at mTOR/GbL/Raptor (mTORC1) and on PI3Kα was 500 to 2500 nM in each case.
On to `Cc1nc2cc(-c3ccc4c(c3)CN(c3nc(NC(C)C)nc(C)c3Cc3ccc(F)cc3)CCO4)ccc2[nH]1` [Compound 19, 5-[(4-fluorophenyl)methyl]-4-methyl-6-[7-(2-methyl-1H-benzimidazol-5-yl)-2,3-dihydro-1,4-benzoxazepin-4(5H)-yl]-N-(1-methylethyl)pyrimidin-2-amine], for which the results for the IC50 against mTOR/GbL/Raptor (mTORC1) and at PI3Kα were 100 to 500 nM and 500 to 2500 nM, respectively.
